In patent US7790896B2, “RNA-selective probes for live cell imaging of nuclear structure and function” (New York University, priority 2006, dated 2010):

Tests used:
[1] = test system: 3T3 fibroblast cells, 3T3-L1 adipocyte cells, Hela cells and A549 human lung carcinoma cells; assay: Secondary screening: live cell nuclear imaging properties in four cell lines; assay type: cell-based, mouse; settings: dye 25 μM
Protocol: All cell staining imaging followed the same procedure. Generally, dyes in dry state were first dissolved in DMSO to obtain the stock solution. The stock solutions were then added directly to the cell culture wells to reach the desired concentration. Total DMSO was lower than 0.1%. After adding dyes, cells were incubated at 37° C. in 5% CO2 for 25 minutes. The medium was then removed and cells were rinsed with fresh medium twice. The cells were then imaged at ambient temperature in the medium. Exposure time was kept less than 5 seconds and adjusted to each dye.
The selected compounds from both primary screens (total 88) were resynthesized in large scale and purified. The compounds' live cell nuclear imaging properties were then tested by four cell lines, including two mouse cell lines: 3T3 fibroblast cells and 3T3-L1 adipocyte cells; and two human cancer cell lines: Hela cells and A549 human lung carcinoma cells. Herein, the final dye concentration in each test was decreased to 25 μM and all the experiments were repeated to establish reproducibility. […] Each of the three dyes contained at least one high affinity nucleic acid functional group (Trotta et al., “Solution Structure of DAPI Selectively Bound in the Minor Groove of a DNA T-T Mismatch-Containing Site: NMR and Molecular Dynamics Studies,” Nucleic Acids Res. 26:4706-4713 (1998); Loontiens et al., “Binding Characteristics of Hoechst 33258 with Calf Thymus DNA, Poly[d(A-T)], and d(CCGGAATTCCGG): Multiple Stoichiometries and Determination of Tight Binding with a Wide Spectrum of Site Affinities,” Biochem. 29:9029-9039 (1990); Zipper et al., “Investigations on DNA Intercalation and Surface Binding by SYBR Green I, Its Structure Determination and Methodological Implications,” Nucleic Acid Res. 32:E103 (2004); Glazer et al., “Stable Dye-DNA Intercalation Complexes as Reagents for High-Sensitivity Fluorescence Detection,” Nature 359:859-861 (1992), which are hereby incorporated by reference in their entirety) in building block II such as the terminal secondary amine for F22 and F112, the trimethoxy for E 144, and the indole for E36.

[2] = test system: RNA (16S- and 23S-ribosomal from E. coli) vs. DNA (salmon testes); assay: RNA vs. DNA selectivity titration in solution; assay type: binding; settings: E36 5 μM, E144 10 μM, F22 10 μM; nucleic acid 0.195 to 200 μg/mL
Protocol: Samples containing 50 μg/mL RNA in TE buffer with an increasing concentration of compound from 0.15 μM to 10 μM. Shown here is the intensity increase recorded at the emission λmax wavelength of each dye. […] The samples contain fixed concentration of dyes (E36: 5 μM; E144: 10 μM; F22: 10 μM) in TE buffer with an increasing concentration of RNA or DNA from 0.19 μg/mL to 200 μg/mL. Data points were in duplicated in individual experiments, and error bars represent standard deviation.
The fluorescence spectra data in the primary screening and selected dyes titration assay study was obtained by Gemini XS plate reader. RNA solution was prepared right before the assay experiments to avoid possible degradation and contamination. In the primary screening, 1 mg/mL RNA (type VI from torula yeast) buffer solution was used. Point scans were carried out first using five Ex/Em point sets ([…], 400/500, 450/550, 500/600, 550/650 nm). Spectra scans were then carried out for the selected dyes. Excitation wavelengths were set at 350 nm, 400 nm, 450 nm, 500 nm, and 550 nm and the emission wavelengths were scanned. RNA (16S- and 23S-ribosomal from E. coli) and DNA (salmon testes) titration experiments and quantum yield/extinction coefficient determination for the three best dyes were carried out by the plate reader as well. Excitation λmax obtained from F-2500 Hitachi Fluorophotometer was used. Absorbance wavelength was determined by SpectraMax Plus^384 absorbance plate reader. […] was chosen as standard and 480 nm was used as excitation wavelength in the scanning for quantum yield determination.
A set of solution assay experiments were then carried out to investigate the dyes' selectivity to bind RNA vs. DNA in vitro. With a fixed concentration of dye (E36 5 μM, E144 10 μM, and F22 10 μM), the fluorescent intensity at various nucleic acid concentrations (0.195 μg/mL to 200 μg/mL) was determined at the appropriate emission λmax wavelength. SYTO®RNASelect (5 μM) and Hoechst 33258 (5 μM) dyes were used as standards for RNA selective and DNA selective dyes (FIG. 3B).

3T3 cells = assay: Cytotoxicity test, MTS assay; assay type: cell-based
Protocol: Dye DMSO stock solutions were diluted by fresh medium into four desired concentrations ([…], 13.5 μM, 10 μM and 5 μM). Cells were cultured in 96-well plate for 12 hours before experiments. The cell medium was then exchanged with different concentrations of dye medium solutions. Cells were incubated at 37° C. in 5% CO2 for 5, 15, or 24 hours before viability by MTS assay was measured. As for the MTS assay, briefly, 3-(4,5-dimethylthiazol-2-yl)-5-(3-carboxymethoxyphenyl)-2-(4-sulfophenyl)-2H-tetrazolium (MTS) and phenazine methosulfate (PMS) were mixed at a ratio of 20:1 right before the experiments. The cell dye medium solution was exchanged with 80 μL of fresh medium followed by the addition of 20 μL MTS/PMS solution to each well. 100 μM hydrogen peroxide was used as positive control. The cell plates were then incubated at 37° C. in 5% CO2 for 2 hours. Absorbance was measured at 490 nm. The absorbance measured for an untreated cell population under the same experimental conditions was used as the reference point to establish 100% cell viability. Duplicated experiments have been tested.
(20 μM, 13.5 μM, 10 μM, and 5 μM) in A549 and 3T3 cells and the cytotoxicity was measured using standard MTS assay after 5, 15, or 24 hours incubation (FIG. 5A). Generally, there was no toxicity (defined by greater than 50% cell death) associated with any of the dyes at the working concentration (5 μM) after 24 hours incubation. In A549 cell, all three dyes were non-toxic after 24 hours incubation at all concentrations. In 3T3 cells, E144 was non-toxic, but 20 μM of E36 was toxic after 24 hours incubation and 20 μM F22 was toxic after 15 hours incubation. Since the compounds bind to RNA, it is not surprising to see some signs of toxicity at higher concentrations, especially after one doubling period (approximately 22 hours for A549 cells and 20-25 hours for 3T3 cells). […] Additional studies are required to determine if the compounds perturb nucleolar dynamics throughout the cells cycle.

| SMILES | Live cell nuclear imaging properties (basis of selection) [1] | Fluorescent intensity response to RNA vs. DNA [2] | Cytotoxicity (toxic = greater than 50% cell death) (3T3 cells; 20 μM, 24 hours incubation) | Cytotoxicity (toxic = greater than 50% cell death) (3T3 cells; 20, 13.5, 10 and 5 μM, 5, 15 or 24 hours) | Cytotoxicity (toxic = greater than 50% cell death) (3T3 cells; 20 μM, 15 hours incubation) |
| --- | --- | --- | --- | --- | --- |
| C[n+]1c(/C=C/c2c[nH]c3ccccc23)ccc2ccccc21 [Dye E36] | selective nucleolar targeting, high fluorescence intensity, low photobleaching, and low cellular toxicity | higher response to RNA than to DNA | toxic |  |  |
| COc1cc(OC)c(/C=C/c2ccc3ccccc3[n+]2C)c(OC)c1 [Dye E144] | selective nucleolar targeting, high fluorescence intensity, low photobleaching, and low cellular toxicity | almost same binding affinity to both RNA and DNA |  | non-toxic |  |
| COc1ccc2c(ccc(/C=C/c3ccc(N(C)C)cc3)[n+]2C)c1 [Dye F22] | selective nucleolar targeting, high fluorescence intensity, low photobleaching, and low cellular toxicity | higher response to RNA than to DNA |  |  | toxic |
